Results published in the NIST ThermoML archive (doi:10.1016/j.jct.2010.08.010).
Numbers after ± are expanded uncertainties.

Conditions: Liquid, Buoyancy - hydrostatic balance with magnetic suspension - one sinker

Cc1ccccc1 [toluene]
Conditions | mass density [kg/m3]
233.15 K, 101.25 kPa | 922.207 ± 0.21
233.15 K, 1055.6 kPa | 922.722 ± 0.21
233.15 K, 1861.3 kPa | 923.156 ± 0.21
233.15 K, 3871.1 kPa | 924.223 ± 0.21
233.15 K, 5873.9 kPa | 925.287 ± 0.22
233.15 K, 8031.1 kPa | 926.415 ± 0.22
233.15 K, 9906.5 kPa | 927.392 ± 0.22
233.15 K, 11973 kPa | 928.445 ± 0.22
233.15 K, 13947 kPa | 929.451 ± 0.22
233.15 K, 15971 kPa | 930.461 ± 0.22
233.15 K, 18029 kPa | 931.487 ± 0.22
233.15 K, 19921 kPa | 932.422 ± 0.22
233.15 K, 22000 kPa | 933.432 ± 0.22
233.15 K, 24029 kPa | 934.411 ± 0.22
233.15 K, 25833 kPa | 935.279 ± 0.22
233.15 K, 27876 kPa | 936.25 ± 0.22
233.15 K, 29776 kPa | 937.146 ± 0.22
253.15 K, 102.01 kPa | 903.705 ± 0.21
253.15 K, 1102.6 kPa | 904.316 ± 0.21
253.15 K, 1837.1 kPa | 904.762 ± 0.21
253.15 K, 3915.8 kPa | 906 ± 0.21
253.15 K, 6024.3 kPa | 907.237 ± 0.21
253.15 K, 7905.8 kPa | 908.333 ± 0.21
253.15 K, 9884.5 kPa | 909.467 ± 0.21
253.15 K, 11995 kPa | 910.665 ± 0.21
253.15 K, 13975 kPa | 911.777 ± 0.21
253.15 K, 15951 kPa | 912.877 ± 0.21
253.15 K, 17978 kPa | 913.989 ± 0.21
253.15 K, 20022 kPa | 915.098 ± 0.21
253.15 K, 21921 kPa | 916.119 ± 0.21
253.15 K, 24088 kPa | 917.274 ± 0.21
253.15 K, 25990 kPa | 918.275 ± 0.21
253.15 K, 27827 kPa | 919.23 ± 0.21
253.15 K, 29746 kPa | 920.223 ± 0.21
273.15 K, 97.87 kPa | 885.25 ± 0.21
273.15 K, 1027.8 kPa | 885.881 ± 0.21
273.15 K, 1996.9 kPa | 886.534 ± 0.21
273.15 K, 4081.7 kPa | 887.926 ± 0.21
273.15 K, 5913.4 kPa | 889.129 ± 0.21
273.15 K, 8004.2 kPa | 890.482 ± 0.21
273.15 K, 9932.4 kPa | 891.714 ± 0.21
273.15 K, 11880 kPa | 892.948 ± 0.21
273.15 K, 13888 kPa | 894.195 ± 0.21
273.15 K, 16098 kPa | 895.56 ± 0.21
273.15 K, 18099 kPa | 896.771 ± 0.21
273.15 K, 19969 kPa | 897.897 ± 0.21
273.15 K, 21860 kPa | 899.011 ± 0.21
273.15 K, 23914 kPa | 900.215 ± 0.21
273.15 K, 25980 kPa | 901.41 ± 0.21
273.15 K, 28070 kPa | 902.607 ± 0.21
273.15 K, 30123 kPa | 903.766 ± 0.21
293.15 K, 99.87 kPa | 866.733 ± 0.2
293.15 K, 101.56 kPa | 866.808 ± 0.2
293.15 K, 1103.1 kPa | 867.572 ± 0.2
293.15 K, 1127.8 kPa | 867.518 ± 0.2
293.15 K, 1967 kPa | 868.206 ± 0.2
293.15 K, 2003.6 kPa | 868.257 ± 0.2
293.15 K, 2021.4 kPa | 868.196 ± 0.2
293.15 K, 3955.9 kPa | 869.643 ± 0.2
293.15 K, 4003.3 kPa | 869.731 ± 0.2
293.15 K, 4004.5 kPa | 869.753 ± 0.2
293.15 K, 5995 kPa | 871.216 ± 0.2
293.15 K, 6031.6 kPa | 871.224 ± 0.2
293.15 K, 6107.1 kPa | 871.23 ± 0.2
293.15 K, 8032.8 kPa | 872.623 ± 0.2
293.15 K, 8164.1 kPa | 872.766 ± 0.2
293.15 K, 8180.3 kPa | 872.799 ± 0.2
293.15 K, 9984.8 kPa | 874.014 ± 0.2
293.15 K, 10008 kPa | 874.081 ± 0.2
293.15 K, 10026 kPa | 874.114 ± 0.2
293.15 K, 12005 kPa | 875.479 ± 0.2
293.15 K, 12114 kPa | 875.512 ± 0.2
293.15 K, 12190 kPa | 875.631 ± 0.2
293.15 K, 13874 kPa | 876.778 ± 0.2
293.15 K, 13947 kPa | 876.779 ± 0.2
293.15 K, 14049 kPa | 876.921 ± 0.2
293.15 K, 15849 kPa | 878.081 ± 0.2
293.15 K, 16015 kPa | 878.24 ± 0.2
293.15 K, 16153 kPa | 878.35 ± 0.2
293.15 K, 17969 kPa | 879.506 ± 0.2
293.15 K, 18022 kPa | 879.584 ± 0.2
293.15 K, 18058 kPa | 879.633 ± 0.2
293.15 K, 19969 kPa | 880.88 ± 0.2
293.15 K, 19990 kPa | 880.848 ± 0.2
293.15 K, 20012 kPa | 880.925 ± 0.2
293.15 K, 21348 kPa | 881.783 ± 0.2
293.15 K, 21972 kPa | 882.207 ± 0.2
293.15 K, 22236 kPa | 882.319 ± 0.2
293.15 K, 23457 kPa | 883.155 ± 0.2
293.15 K, 23981 kPa | 883.441 ± 0.2
293.15 K, 24105 kPa | 883.586 ± 0.2
293.15 K, 25005 kPa | 884.147 ± 0.2
293.15 K, 25908 kPa | 884.671 ± 0.2
293.15 K, 26066 kPa | 884.837 ± 0.2
293.15 K, 27839 kPa | 885.935 ± 0.21
293.15 K, 27990 kPa | 885.976 ± 0.21
293.15 K, 28091 kPa | 886.104 ± 0.21
293.15 K, 28372 kPa | 886.271 ± 0.21
293.15 K, 29914 kPa | 887.239 ± 0.21
293.15 K, 30011 kPa | 887.242 ± 0.21
313.15 K, 100.25 kPa | 848.035 ± 0.2
313.15 K, 1103.1 kPa | 848.903 ± 0.2
313.15 K, 2030.6 kPa | 849.693 ± 0.2
313.15 K, 3897.3 kPa | 851.277 ± 0.2
313.15 K, 6141.8 kPa | 853.137 ± 0.2
313.15 K, 7925.2 kPa | 854.59 ± 0.2
313.15 K, 9859 kPa | 856.142 ± 0.2
313.15 K, 11935 kPa | 857.774 ± 0.2
313.15 K, 13950 kPa | 859.327 ± 0.2
313.15 K, 16069 kPa | 860.941 ± 0.2
313.15 K, 17874 kPa | 862.289 ± 0.2
313.15 K, 19838 kPa | 863.738 ± 0.2
313.15 K, 22114 kPa | 865.383 ± 0.2
313.15 K, 24097 kPa | 866.799 ± 0.2
313.15 K, 25913 kPa | 868.068 ± 0.2
313.15 K, 28005 kPa | 869.523 ± 0.2
313.15 K, 29966 kPa | 870.863 ± 0.2
333.15 K, 98.96 kPa | 829.055 ± 0.19
333.15 K, 1101 kPa | 830.042 ± 0.19
333.15 K, 2134.3 kPa | 831.05 ± 0.19
333.15 K, 4003.8 kPa | 832.841 ± 0.19
333.15 K, 6105.7 kPa | 834.814 ± 0.19
333.15 K, 8005 kPa | 836.556 ± 0.2
